# Data published in patent US20090181963A1, “3H-[1,2,3]TRIAZOLO[4,5-D]PYRIMIDINE COMPOUNDS, THEIR USE AS mTOR KINASE AND PI3 KINASE INHIBITORS, AND THEIR [sequence]” (Wyeth, priority 2008, published 2009).
# Target: PI3 Kinase γ (Homo sapiens, UniProt P48736)
# Assay: Fluorescence polarization assay for PI3K (PI3 Kinase γ)
# Assay type: biochemical
# Settings: diC8-PI(4,5)P2 substrate, 25 μM ATP, one hour at 25° C.
# Experimental: Nunc 384 well black polypropylene fluorescent plates were used for PI3K assays. Reactions were quenched by the addition of EDTA to a final concentration of 10 μM. Final reaction volumes were 10 ml. […] Reactions were allowed to proceed for one hour at 25° C. After I hour, GST-tagged GRP1 (general receptor for phosphoinositides) PH domain fusion protein was added to a final concentration of 100 nM, and BODIPY-TMRI(1,3,4,5)P4 (Echelon) was also added to a final concentration of 5 nM. Final sample volumes were 25 μl with a final DMSO concentration of 0.8%. Assay Plates were read on PerkinElmer Envision plate readers with appropriate filters for Tamra [BODIPY-TMRI(1,3,4,5)P4]. Data obtained were used to calculate enzymatic activity and enzyme inhibition by inhibitor compounds.
# PI3 Kinase γ, sequence (P48736 whole entry): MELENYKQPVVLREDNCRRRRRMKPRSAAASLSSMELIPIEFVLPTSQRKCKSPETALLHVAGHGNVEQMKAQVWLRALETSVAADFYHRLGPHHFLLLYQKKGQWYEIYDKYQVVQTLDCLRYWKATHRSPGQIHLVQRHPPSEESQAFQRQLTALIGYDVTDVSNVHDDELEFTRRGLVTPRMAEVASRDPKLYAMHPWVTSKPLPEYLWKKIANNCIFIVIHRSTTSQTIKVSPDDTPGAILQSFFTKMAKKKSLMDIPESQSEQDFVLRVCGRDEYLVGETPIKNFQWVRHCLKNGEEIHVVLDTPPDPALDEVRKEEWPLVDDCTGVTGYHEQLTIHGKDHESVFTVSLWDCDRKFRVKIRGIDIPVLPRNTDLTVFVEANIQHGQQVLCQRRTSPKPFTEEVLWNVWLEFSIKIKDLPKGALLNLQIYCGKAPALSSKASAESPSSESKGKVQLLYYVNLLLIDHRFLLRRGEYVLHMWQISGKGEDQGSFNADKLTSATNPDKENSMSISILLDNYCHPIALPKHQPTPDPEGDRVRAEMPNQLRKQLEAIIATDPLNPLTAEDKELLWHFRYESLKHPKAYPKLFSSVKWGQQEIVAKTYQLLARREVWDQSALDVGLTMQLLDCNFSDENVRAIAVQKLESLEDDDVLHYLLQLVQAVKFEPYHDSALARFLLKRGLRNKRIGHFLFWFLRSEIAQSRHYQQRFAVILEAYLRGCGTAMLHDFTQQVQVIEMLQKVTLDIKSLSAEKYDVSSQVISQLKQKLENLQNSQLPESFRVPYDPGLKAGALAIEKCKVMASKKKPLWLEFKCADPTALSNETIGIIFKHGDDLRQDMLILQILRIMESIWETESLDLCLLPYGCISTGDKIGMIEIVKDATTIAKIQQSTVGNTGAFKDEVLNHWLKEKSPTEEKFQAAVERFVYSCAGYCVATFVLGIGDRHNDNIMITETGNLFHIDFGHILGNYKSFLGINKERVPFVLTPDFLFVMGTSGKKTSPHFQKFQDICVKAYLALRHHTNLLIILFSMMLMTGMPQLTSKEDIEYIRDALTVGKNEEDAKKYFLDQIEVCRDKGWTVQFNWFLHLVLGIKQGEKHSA
row,SMILES,IC50
1,"CC(C)n1nnc2c(N3CCOCC3)nc(-c3ccc(NC(=O)Nc4ccc([N+](=O)[O-])cc4)cc3)nc21 [Example 278, 1-{4-[3-(1-methylethyl)-7-morpholin-4-yl-3H-[1,2,3]triazolo[4,5-d]pyrimidin-5-yl]phenyl}-3-(4-nitrophenyl)urea]",21.5 nM
2,"CCn1nnc2c(N3CCOCC3)nc(-c3ccc(NC(=O)Nc4ccc(NC(=O)N5CCOCC5)cc4)cc3)nc21 [Example 263, N-[4-({[4-(3-ethyl-7-morpholin-4-yl-3H-[1,2,3]triazolo[4,5-d]pyrimidin-5-yl)phenyl]carbamoyl}amino)phenyl]morpholine-4-carboxamide]",3.1 nM
3,"CC(C)n1nnc2c(N3CCOCC3)nc(-c3ccc(NC(=O)Nc4ccc(C(=O)N5CCN(C)CC5)cc4)cc3)nc21 [Example 257, 1-{4-[3-(1-methylethyl)-7-morpholin-4-yl-3H-[1,2,3]triazolo[4,5-d]pyrimidin-5-yl]phenyl}-3-{4-[(4-methylpiperazin-1-yl)carbonyl]phenyl}urea]",10 nM
4,"CCn1nnc2c(N3CCOC[C@@H]3C)nc(-c3ccc(NC(=O)Nc4ccc(C(=O)NCCN5CCCC5)cc4)cc3)nc21 [Example 283, 4-{[(4-{3-ethyl-7-[(3S)-3-methylmorpholin-4-yl]-3H-[1,2,3]triazolo[4,5-d]pyrimidin-5-yl}phenyl)carbamoyl]amino}-N-(2-pyrrolidin-1-ylethyl)benzamide]",3.35 nM
5,"CCn1nnc2c(N3CCOC[C@@H]3C)nc(-c3ccc(NC(=O)Nc4ccc(C(=O)NCCN5CCCCC5)cc4)cc3)nc21 [Example 284, 4-{[(4-{3-ethyl-7-[(3S)-3-methylmorpholin-4-yl]-3H-[1,2,3]triazolo[4,5-d]pyrimidin-5-yl}phenyl)carbamoyl]amino}-N-(2-piperidin-1-ylethyl)benzamide]",4.35 nM
6,"CCn1nnc2c(N3CCOCC3)nc(-c3ccc(NC(=O)Nc4ccc(C(=O)OC)nc4)cc3)nc21 [Example 287, Methyl 5-({[4-(3-ethyl-7-morpholin-4-yl-3H-[1,2,3]triazolo[4,5-d]pyrimidin-5-yl)phenyl]carbamoyl}amino)pyridine-2-carboxylate]",91.5 nM
7,"CCn1nnc2c(N3CCOCC3)nc(-c3ccc(NC(=O)Nc4ccc(NCc5ccncc5)cc4)cc3)nc21 [Example 252, 1-[4-(3-ethyl-7-morpholin-4-yl-3H-[1,2,3]triazolo[4,5-d]pyrimidin-5-yl)phenyl]-3-{4-[(pyridin-4-ylmethyl)amino]phenyl}urea]",3.83 nM
8,"CCn1nnc2c(N3CCOCC3)nc(-c3ccc(NC(=O)Nc4ccc([N+](=O)[O-])cc4)cc3)nc21 [Example 247, 1-[4-(3-ethyl-7-morpholin-4-yl-3H-[1,2,3]triazolo[4,5-d]pyrimidin-5-yl)phenyl]-3-(4-nitrophenyl)urea]",15 nM
9,"CCn1nnc2c(N3CCOCC3)nc(-c3ccc(NC(=O)Nc4ccc(NC(=O)NCCOC)cc4)cc3)nc21 [Example 276, 1-[4-(3-ethyl-7-morpholin-4-yl-3H-[1,2,3]triazolo[4,5-d]pyrimidin-5-yl)phenyl]-3-(4-{[(2-methoxyethyl)carbamoyl]amino}phenyl)urea]",4.45 nM
10,"CCn1nnc2c(N3CCOC[C@@H]3C)nc(-c3ccc(NC(=O)Nc4ccc(C(=O)N5CCC(N(C)C)CC5)cc4)cc3)nc21 [Example 281, (S)-1-(4-(4-(dimethylamino)piperidine-1-carbonyl)phenyl)-3-(4-(3-ethyl-7-(3-methylmorpholino)-3H-[1,2,3]triazolo[4,5-d]pyrimidin-5-yl)phenyl)urea]",2.8 nM
11,"CC(C)n1nnc2c(N3CCOCC3)nc(-c3ccc(NC(=O)Nc4ccc(N5CCN(C)CC5)cc4)cc3)nc21 [Example 277, 1-{4-[3-(1-methylethyl)-7-morpholin-4-yl-3H-[1,2,3]triazolo[4,5-d]pyrimidin-5-yl]phenyl}-3-[4-(4-methylpiperazin-1-yl)phenyl]urea]",5.5 nM
